Where two headings read alike, the source gives them in different places.
Legend:
[1] = system: A549 cells with Kras G12S mutation; assay: Cell proliferation inhibition experiment, 3D spheroid, CellTiter-Glo (Test Example 1); type: cell-based, human; conditions: 5 days
Outline: (§1)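 NCI-H358 (800 cells/well) and A549 (400 cells/well) grown overnight as 3D spheroids in 2% FBS medium, then exposed to compound dilution series (3.16-fold, 0.1% DMSO) for 5 days. CellTiter-Glo luminescence read; inhibition relative to DMSO and blank, IC50 by four-parameter fit.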

[2] = system: NCI-H358 cells with Kras G12C mutation; assay: as above; type: cell-based, human; conditions: 5 days
Outline: as §1

[3] = system: phosphorylated ERK in MIA PaCa2 cells with Kras G12C mutation; assay: p-ERK HTRF assay for cells (Test Example 2); type: cell-based, human
Outline: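 MIA PaCa2 cells (2.5E4/well, seeded overnight) treated 2 h with compound in a 3.16-fold series at 0.1% DMSO. Cells lysed 30 min; p-ERK read by HTRF after 4 h antibody incubation. Inhibition relative to DMSO and blank; IC50 by four-parameter fit.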

[4] = system: subcutaneous xenograft tumor model of MIA PaCa-2; assay: In vivo pharmacodynamic experiment, tumor growth inhibition (Test Example 5); parameters: species or system BALB/c nude mice; conditions: p.o., QD; for TGI: day 14
Experimental: Experimental objective: to evaluate the in vivo pharmaceutical effects of tested compounds on the subcutaneous xenograft tumor model of MIA PaCa-2.
Experimental operation: 6 to 8 weeks old female BALB/c nude mice each having the body weight of 18-20 g were chosen. MIA PaCa-2 cells were cultured in DMEM containing 10% FBS, 2.5% HS and 1% penicillin-streptomycin at 37° C. in an incubator with 5% CO2. Cells were collected. The MIA PaCa-2 cells were subcutaneously inoculated to the animals at their backs on the right, 2.0×10^6 cells (0.1 mL) for each animal. When tumor grew to 190-311 mm^3, mice with tumor having a suitable size were chosen and treated in groups, with administration dosages shown in Table 5 below. The animals were weighed on an electronic balance each day. The tumor volume was investigated by using a vernier caliper twice a week. The tumor volume was calculated by the following equation: V=0.5 a×b^2, a and b representing the long diameter and the short diameter of the tumor, respectively. The tumor volume was used to calculate a tumor growth inhibition rate (TGI), and the TGI shown in the form of a percentage was used to indicate the antineoplastic activity of a compound. The TGI was calculated by the following equation: TGI (%)=[1−avTi−0/avCi−0)]×100, with avTi−0 representing the average tumor volume of the group administrated with the compound on a specific day minus the average tumor volume of this group on the day of grouping, and avCi−0 representing the average tumor volume of the solvent control group on a specific day minus the average tumor volume of the solvent control group on the day of grouping. The tumor volume was shown in the form of an average value±standard error of mean (SEM).

[5] = Homo sapiens, MIA PaCa-2, 2 h, MIA PaCa2 cells, 2 hours with compound, read-out: p-ERK IC50
[6] = MIA PaCa2 cells, 2 hours with compound, read-out: p-ERK IC50

Structure (SMILES)	IC50 [1]	IC50 [2]	IC50 [3, 5]	IC50 [3, 6]	Tumor Volume on Day 14 after Administration ([4]; 1 mg/kg)	TGI ([4]; 1 mg/kg)	Tumor Volume on Day 14 after Administration ([4]; 3 mg/kg)	TGI ([4]; 3 mg/kg)	Tumor Volume on Day 14 after Administration ([4]; 10 mg/kg)	TGI ([4]; 10 mg/kg)	IC50 ([3]; Homo sapiens, MIA PaCa-2, 2 h, read-out: p-ERK IC50, MIA PaCa2 cells, 2 hours with compound)	IC50 ([3]; read-out: p-ERK IC50, MIA PaCa2 cells, 2 hours with compound)	IC50 ([1]; Homo sapiens, A549, 120 h)	IC50 ([2]; Homo sapiens, NCI-H358, 120 h)
C=CC(=O)N1CCN2c3c(c(=O)n(-c4c(C)ccnc4C(C)C)c4nc(-c5c(O)cccc5F)c(F)cc34)N(C)C(=O)[C@H]2C1 (single isomer, unassigned) [Compound Z9-2]	> 10000 nM	15 nM	221 nM	–	–	–	–	–	–	–	–	–	–	–
C=CC(=O)N1C[C@@H]2C(=O)N(C)c3c(c4cc(F)c(-c5c(O)cccc5F)nc4n(-c4c(C)ccnc4C(C)C)c3=O)N2C[C@H]1C (single isomer, unassigned) [Compound Z10-2]	24600 nM	4 nM	–	34 nM	–	–	–	–	–	–	–	–	–	–
C=CC(=O)N1CCN2c3c(c(=O)n(-c4c(C)ccnc4C(C)C)c4nc(-c5c(O)cccc5F)c(Cl)cc34)N(C)C(=O)[C@H]2C1 (single isomer, unassigned) [Compound Z25-2]	> 30000 nM	3 nM	–	–	180.14 mm^3	116.2%	62.35 mm^3	143.7%	18.94 mm^3	154.4%	29 nM	–	–	–
[2H]C([2H])([2H])N1C(=O)[C@H]2CN(C(=O)C=C)CCN2c2c1c(=O)n(-c1c(C)ccnc1C(C)C)c1nc(-c3c(O)cccc3F)c(Cl)cc21 (single isomer, unassigned) [Compound Z26-2]	> 30000 nM	3 nM	–	–	157.06 mm^3	121.1%	67.66 mm^3	143.8%	30.49 mm^3	151.1%	–	62 nM	–	–
C=CC(=O)N1C[C@@H]2C(=O)N(C)c3c(c4cc(Cl)c(-c5c(O)cccc5F)nc4n(-c4c(C)ccnc4C(C)C)c3=O)N2C[C@H]1C (single isomer, unassigned) [Compound Z27-2]	19000 nM	1 nM	–	11 nM	140.10 mm^3	126.3%	54.81 mm^3	145.1%	15.16 mm^3	155.8%	–	–	–	–
C=CC(=O)N1CCN2c3c(c(=O)n(-c4c(C(C)C)ncnc4C(C)C)c4c(F)c(-c5c(O)cccc5F)c(Cl)cc34)NC(=O)[C@H]2C1 (single isomer, unassigned) [Compound Z37-1]	> 30000 nM	0.7 nM	11 nM	–	286.12 mm^3	89.4%	238.82 mm^3	102.8%	210.59 mm^3	108.4%	–	–	–	–
C=CC(=O)N1CCN2c3c(c(=O)n(-c4c(C)ccnc4C(C)C)c4nc(-c5c(O)cccc5F)c(F)cc34)OC[C@H]2C1 [Compound Z1, (4aR)-3-acryloyl-11-fluoro-10-(2-fluoro-6-hydroxyphenyl)-8-(2-isopropyl-4-methylpyridin-3-yl)-1,2,3,4,4a,5-hexahydropyrazino[1′,2′:4,5][1,4]oxazino[2,3-c][1,8]naphthyridin-7(8H)-one]	–	–	432 nM	–	–	–	–	–	–	–	–	–	> 10000 nM	31 nM
C=CC(=O)N1CCN2c3c(c(=O)n(-c4c(C(C)C)ncnc4C(C)C)c4nc(-c5c(O)cccc5F)c(Cl)cc34)N(C)C(=O)[C@H]2C1 [Compound Z48]	–	–	52 nM	–	459.33 mm^3	51.2%	148.62 mm^3	124.7%	90.39 mm^3	138.5%	–	–	> 10000 nM	3 nM

Source: patent US12054497B2, “Substituted heterocyclic fused cyclic compound, preparation method therefor and pharmaceutical use thereof” (GENFLEET THERAPEUTICS (SHANGHAI) INC., priority 2019, dated 2024)
